Measured values from article PMC10327353 (Breast Cancer Research : BCR, 2023).
Read-outs that look alike come from different tables or passages of the source.

Experiments:
[1] = system: P-gp-BCRP; experiment: P-gp-BCRP efflux ratio, cellular transport assay; type: in vitro ADME, human
Method: A discussion of the structure–activity relationship (SAR) cumulated in the design of DZD1516 (Fig. 1) is as follows. The HER2 inhibitory potency screening for SAR development was performed using HER2 and EGFR enzymatic assays. The cellular activity was evaluated in HER2+ cell line BT474C1 by measuring pHER2 and antiproliferation activities. Cellular transport assays measuring the permeability and efflux ratio of compounds in cells expressing human P-gp (MDR1) and BCRP were used to provide essential information for assessing their BBB penetration potential.

[2] = molecular target: T1, pHER2 (Homo sapiens, UniProt P04626); experiment: pHER2 IHC (PD) in SC xenograft tumor tissue after single dose; type: in vivo, mice
T1 construct: from tissue; host or cells: subcutaneous BT474C1-Luci Mono1 xenograft tumour tissue from nude mice
Method: The subcutaneous xenograft tissues were collected from mice after a single dose of vehicle or DZD1516. Samples were snap-frozen for analysis. Tissues from animals were analyzed at each time point IHC was performed on 5 μm frozen sections using a Ventana discovery XT automation (Roche) for pHER2 (Catalog #) IHC staining. The stained IHC slides were firstly reviewed and interpreted by a qualified pathologist and then quantified by the Imagescope software of Aperio system. The “H” score quantified by Aperio system will be corrected by a pathologist. Statistical analysis was performed by t-test.

[3] = Phase 1 study: CSF penetration (Kp,uu,CSF); type: in vivo, human; conditions: for Kp uu: human, oral
Method: Blood samples for PK analyses of DZD1516 and DZ2678 were collected on C0D1. Samples were obtained at pre-dose and at 0.5, 1, 1.5, 2, 2.5, 3, 4, 6, 8, 10, 24, 48, and 72 h after the dose, while for C1D15, samples were obtained at pre-dose and 0.5, 1, 1.5, 2, 2.5, 3, 4, 6, 8, and 10 h after the dose. CSF samples for PK analyses of DZD1516 and its metabolite DZ2678 were collected from patients with BM (C1D15) and LM (C1D15 and C3D1) at steady state (Additional file 1). Plasma and CSF samples were analyzed by LabCorp Madison laboratory (Madison, WI, USA) and LabCorp Shanghai laboratory (Shanghai, China) using a validated LC/MS/MS bioanalytical method to determine DZD1516 and DZ2678 concentrations. Non-compartmental PK analysis was performed using Phoenix WinNonlin (Certara USA Inc., version 8.3.3.33).

T1 sequence (P04626 23-1255): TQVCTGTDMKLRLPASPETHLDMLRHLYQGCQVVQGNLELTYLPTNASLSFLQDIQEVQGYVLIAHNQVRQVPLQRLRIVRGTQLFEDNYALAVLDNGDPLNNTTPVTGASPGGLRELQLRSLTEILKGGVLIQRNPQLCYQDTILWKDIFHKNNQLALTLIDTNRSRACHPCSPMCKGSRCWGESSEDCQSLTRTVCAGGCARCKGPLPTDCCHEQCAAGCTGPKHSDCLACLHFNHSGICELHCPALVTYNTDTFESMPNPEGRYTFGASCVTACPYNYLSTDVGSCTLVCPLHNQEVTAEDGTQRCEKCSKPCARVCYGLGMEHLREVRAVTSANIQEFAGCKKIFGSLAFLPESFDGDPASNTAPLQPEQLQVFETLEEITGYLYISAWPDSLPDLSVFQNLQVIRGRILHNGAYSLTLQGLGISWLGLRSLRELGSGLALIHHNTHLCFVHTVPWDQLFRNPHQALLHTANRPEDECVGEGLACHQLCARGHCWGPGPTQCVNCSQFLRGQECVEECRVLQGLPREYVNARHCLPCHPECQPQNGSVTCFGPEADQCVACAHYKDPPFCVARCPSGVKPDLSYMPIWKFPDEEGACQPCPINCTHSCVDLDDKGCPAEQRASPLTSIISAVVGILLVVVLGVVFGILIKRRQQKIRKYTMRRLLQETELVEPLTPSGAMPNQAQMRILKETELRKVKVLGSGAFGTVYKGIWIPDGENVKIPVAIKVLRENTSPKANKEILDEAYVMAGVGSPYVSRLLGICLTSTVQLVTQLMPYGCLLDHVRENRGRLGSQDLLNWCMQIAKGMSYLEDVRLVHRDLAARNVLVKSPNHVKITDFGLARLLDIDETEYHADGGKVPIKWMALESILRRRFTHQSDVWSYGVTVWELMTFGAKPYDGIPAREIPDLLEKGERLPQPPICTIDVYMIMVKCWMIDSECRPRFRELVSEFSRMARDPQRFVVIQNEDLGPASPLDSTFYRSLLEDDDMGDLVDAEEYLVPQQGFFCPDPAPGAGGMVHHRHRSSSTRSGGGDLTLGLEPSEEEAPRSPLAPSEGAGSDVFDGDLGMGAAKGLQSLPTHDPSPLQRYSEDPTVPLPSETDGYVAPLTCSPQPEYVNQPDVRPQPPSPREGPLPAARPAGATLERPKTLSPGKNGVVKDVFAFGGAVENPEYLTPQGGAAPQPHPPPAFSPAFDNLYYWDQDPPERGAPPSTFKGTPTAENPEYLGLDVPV

COc1cc(O[C@H]2CCN(C)CC2(F)F)c2c(Nc3ccc(Oc4ccn5ncnc5c4)c(C)c3)ncnc2c1 [DZD1516]
efflux ratio at 1 µM ([1]; human, not told, 1 µM): 1.8 | active efflux via P-gp and BCRP ([1]; in vitro): do not undergo active efflux via P-gp and BCRP in vitro | inhibition at 50 mg/kg ([2]; mouse, single dose 50 mg/kg, 0.25 h): > 94% | inhibition at 150 mg/kg ([2]; mouse, single dose 150 mg/kg): 89% | duration of pHER2 inhibition ([2]; single dose 50 mg/kg): 6 h | duration of pHER2 inhibition ([2]; single dose 150 mg/kg): 24 h | CSF conc ([3]; 50 mg, subject 1): 4.89 nmol/L | Free plasma conc ([3]; 50 mg, subject 1): 5.35 nM | CSF conc ([3]; 50 mg, subject 2): 10.2 nmol/L | Free plasma conc ([3]; 50 mg, subject 2): 6.28 nM | CSF conc ([3]; 100 mg, subject 3): 39.3 nmol/L | Free plasma conc ([3]; 100 mg, subject 3): 13.4 nM | CSF conc ([3]; 100 mg, subject 4): 15.5 nmol/L | Free plasma conc ([3]; 100 mg, subject 4): 4.95 nM | CSF conc ([3]; 100 mg, subject 5): 12.7 nmol/L | Free plasma conc ([3]; 100 mg, subject 5): 4.84 nM | CSF conc ([3]; 200 mg, subject 6): 18.3 nmol/L | Free plasma conc ([3]; 200 mg, subject 6): 13.9 nM | CSF conc ([3]; 250 mg, subject 7): 27.9 nmol/L | Free plasma conc ([3]; 250 mg, subject 7): 24.0 nM | CSF conc ([3]; 250 mg, subject 8): 54.2 nmol/L | Free plasma conc ([3]; 250 mg, subject 8): 17.4 nM | Kp uu ([3]; CSF (relative to unbound plasma), patients with CNS metastases, read-out: mean Kp,uu,CSF): 2.1 | Kp uu ([3]; CSF / free plasma, 100 mg, subject 4, read-out: Kp,uu,CSF): 3.13 | Kp uu ([3]; CSF / free plasma, 100 mg, subject 5, read-out: Kp,uu,CSF): 2.63 | Kp uu ([3]; CSF / free plasma, 200 mg, subject 6, read-out: Kp,uu,CSF): 1.31 | Kp uu ([3]; CSF / free plasma, 250 mg, subject 7, read-out: Kp,uu,CSF): 1.16 | Kp uu ([3]; CSF to free plasma, 50 mg, subject 1, read-out: Kp,uu,CSF): 0.915 | Kp uu ([3]; CSF to free plasma, 50 mg, subject 2, read-out: Kp,uu,CSF): 1.62 | Kp uu ([3]; CSF to free plasma, 100 mg, subject 3, read-out: Kp,uu,CSF): 2.94 | Kp uu ([3]; CSF to free plasma, 250 mg, subject 8, read-out: Kp,uu,CSF): 3.13
